One data set has as its system P388 mouse leukemia cell. The experiment in a line: in vitro P388 mouse leukemia cell assay. Format: cell-based. The conditions noted are these: 50% inhibition of cell replication vs untreated cultures. Here is the method:
Antitumor effectiveness of the compounds of the invention was evaluated using a standardized in vitro P388 mouse leukemia cell assay protocol disclosed in U.S. Pat. No. 4,731,366 with the antitumor activity being expressed in IC50 (concentration that results in 50% inhibition of cell replication normalized to untreated cultures) determined with a log-log transform of data and expressed as xx ng/ml. As an example, for mycalamide A the P388 assay value was […]

The test system of data set [1] is polio vaccine virus Type I (PVI). The data set is classed as cell-based.
A further data set relates to HSV. Format: cell-based, Herpes simplex type 1 virus.
In another data set the test system is antimitotic activity. The conditions noted are these: British Pat. Nos. 1,078,049 and 932,875; cited from earlier work.

Turning to `C=C1CC(OC)(C(O)C(=O)NC2OCOC3C2OC(CC(CO[Si](C)(C)C)O[Si](C)(C)C)C(C)(C)C3OC)OC(C)C1C` (stereo not shown) [Example 14, Mycalamide A 17,18-bis-trimethylsilylether], the “P388 IC50” value with P388 mouse leukemia cell worked out at 1.2 ng/mL. Moreover, in data set [1], the “AV assay, PVI” value is reported as 4+. Moreover, the “AV assay, HSV” value in the data set with HSV is reported as 4+.

As to `COC1C2OCOC(NC(=O)C(O)C3(OC)CC4(CO4)C(C)C(C)O3)C2OC(CC(O)CO)C1(C)C` (stereo not drawn) [Example 4, Mycalamide A 4β-epoxide], in the data set on P388 mouse leukemia cell, the “P388 IC50” value is 14.9 ng/mL. Also, the “AV assay, HSV” value in the data set on HSV was 4+.

For the compound `COC1C2OCOC(NC(=O)C(OC(=O)c3ccc(Br)cc3)=C3C=C(C)C(C)C(C)O3)C2OC(CC(O)COC(=O)c2ccc(Br)cc2)C1(C)C` (single isomer, unassigned) [Example 13, Neomycalamide A 7,18-di-p-bromobenzoate], the “P388 IC50” value in the data set on P388 mouse leukemia cell is 572.5 ng/mL. Besides, in data set [1], the “AV assay, PVI” value is 4+ and -. Moreover, the “AV assay, HSV” value in the data set with HSV was 4+ and -. Further, in the data set on BSC cells, the “AV assay, cytotoxicity” value is listed as “-”.

In the case of `COC1C2OCOC(NC(=O)C(O)C3(O)CC(C)C(C)C(C)O3)C2OC(CC(O)CO)C1(C)C` (stereo not drawn) [Example 20, 4α-dihydro pseudomycalamide A], the “P388 IC50” value in the data set with P388 mouse leukemia cell was 10.5 ng/mL. In the data set on HSV, the “AV assay, HSV” value is reported as 4+.

On to `COC(CO)CC1OC2C(NC(=O)C(O)C3(OC)CC(C)C(C)C(C)O3)OCOC2C(OC)C1(C)C` (stereo not drawn) [Example 24, 4β-Dihydro mycalamide B], for which, in the data set on P388 mouse leukemia cell, the “P388 IC50” value came to 0.14 ng/mL. In addition, the “AV assay, PVI” value in data set [1] is 4+.

On to `C=C1C[C@](OC)([C@H](O)C(=O)N[C@@H](OC)[C@@H]2C[C@@H](O)C(C)(C)[C@@H](C[C@@H](COC)OC)O2)O[C@H](C)[C@@H]1C` [Pederin, pederin], for which, in the data set on antimitotic activity, the antimitotic activity entry is on record as “shows antimitotic activity”.

For the compound `COC(CO)CC1OC2C(NC(=O)C(O)C3(O)CC(C)C(C)C(C)O3)OCOC2C(OC)C1(C)C` (stereo not drawn) [Example 26, 4α Dihydro pseudomycalamide B], the “P388 IC50” value in the data set with P388 mouse leukemia cell amounted to 3 ng/mL. The “AV assay, PVI” value in data set [1] was 4+ and -. Also, in the data set with HSV, the “AV assay, HSV” value is 4+ and -. The “AV assay, cytotoxicity” value in the data set with BSC cells is reported as “-”.

For `COC1C2OCOC(NC(=O)C(O)C3(OC)CC4(CO4)C(C)C(C)O3)C2OC(CC(O)CO)C1(C)C` (stereo not shown) [Example 3, Mycalamide A 4 γ-epoxide], the “P388 IC50” value in the data set with P388 mouse leukemia cell came out at 34 ng/mL.

Consider `C=C1CC(OC)(C(OC(=O)c2ccc(Br)cc2)C(=O)NC2OCOC3C2OC(CC(O)COC(=O)c2ccc(Br)cc2)C(C)(C)C3OC)OC(C)C1C` (stereo not shown) [Example 12, Mycalamide A 7,18-di-p-bromobenzoate], for which the “P388 IC50” value with P388 mouse leukemia cell amounted to 141.2 ng/mL. Besides, the “AV assay, PVI” value in data set [1] was 4+.

On to `C=C1CC(OC)(C(OC(=O)c2ccc(Br)cc2)C(=O)NC2OCOC3C2OC(CC(O)CO)C(C)(C)C3OC)OC(C)C1C` (stereo not shown) [Example 10, Mycalamide A 7-mono-p-bromobenzoate], for which, in the data set with P388 mouse leukemia cell, the “P388 IC50” value came out at 23.3 ng/mL. Besides, in data set [1], the “AV assay, PVI” value was 4+. Moreover, the “AV assay, HSV” value in the data set on HSV is on record as 4+.

As for `C=C1CC(O)(C(O)C(=O)NC2OCOC3C2OC(CC(O)CO)C(C)(C)C3OC)OC(C)C1C` (stereo not shown) [Example 28, Pseudomycalamide A], in the data set on P388 mouse leukemia cell, the “P388 IC50” value stood at 23 ng/mL. Besides, the “AV assay, PVI” value in data set [1] was 4+. For the same compound, in the data set on HSV, the “AV assay, HSV” value is 4+.

Consider `C=C1CC(OC)(C(OC(C)=O)C(=O)NC2OCOC3C2OC(CC(COC(C)=O)OC)C(C)(C)C3OC)OC(C)C1C` (stereo not shown) [Example 9, Mycalamide B Diacetate], for which the “P388 IC50” value in the data set with P388 mouse leukemia cell came to 15.3 ng/mL. In addition, in data set [1], the “AV assay, PVI” value is 4+ and -. Moreover, the “AV assay, HSV” value in the data set with HSV is 4+ and -. Moreover, the “AV assay, cytotoxicity” value with BSC cells is “-”.

As for `C=C1CC(OC)(C(O)C(=O)NC2OCOC3C2OC(CC(O)COC(=O)c2ccc(Br)cc2)C(C)(C)C3OC)OC(C)C1C` (stereo not shown) [Example 11, Mycalamide A 18-mono-p-bromobenzoate], the “P388 IC50” value with P388 mouse leukemia cell amounted to 1.28 ng/mL. Further, the “AV assay, PVI” value in data set [1] was 4+ and -. The “AV assay, cytotoxicity” value with BSC cells was “-”.

As to `COC1C2OCOC(NC(=O)C(O)C3(O)CC(C)C(C)C(C)O3)C2OC(CC(O)CO)C1(C)C` (stereo not drawn) [Example 23, 4β-dihydro pseudomycalamide A], the “P388 IC50” value in the data set on P388 mouse leukemia cell worked out at 4.2 ng/mL. The “AV assay, PVI” value in data set [1] is 4+. Besides, the “AV assay, HSV” value with HSV is listed as 4+.

As for `C=C1C[C@](OC)([C@H](O)C(=O)N[C@H]2OCO[C@H]3[C@@H]2O[C@H](C[C@@H](CO)OC)C(C)(C)[C@@H]3OC)O[C@H](C)[C@@H]1C` [Example 2, Mycalamide B], in the data set on P388 mouse leukemia cell, the “P388 IC50” value turned out to be 0.26 ng/mL. Moreover, in data set [1], the “AV assay, PVI” value was 4+ and -. Moreover, the “AV assay, HSV” value with HSV is 4+ and -. The “AV assay, cytotoxicity” value in the data set on BSC cells is “-”.

Consider `C=C1CC(OC)(C(O[Si](C)(C)C)C(=O)NC2OCOC3C2OC(CC(CO[Si](C)(C)C)O[Si](C)(C)C)C(C)(C)C3OC)OC(C)C1C` (stereo not shown) [Example 15, Mycalamide A tris-trimethylsilylether], for which the “P388 IC50” value in the data set on P388 mouse leukemia cell is 1.3 ng/mL. Besides, the “AV assay, PVI” value in data set [1] was 4+ and -. Further, in the data set on HSV, the “AV assay, HSV” value was 4+ and -. Also, the “AV assay, cytotoxicity” value with BSC cells was “-”.

Take `C=C1CC(O)(C(O)C(=O)NC2OCOC3C2OC(CC(CO)OC)C(C)(C)C3OC)OC(C)C1C` (stereo not shown) [Example 27, Pseudomycalamide B]: the “P388 IC50” value in the data set with P388 mouse leukemia cell came to 1.8 ng/mL. Also, the “AV assay, PVI” value in data set [1] is 4+ and -. The “AV assay, HSV” value with HSV is 4+ and -. The “AV assay, cytotoxicity” value with BSC cells is recorded as “-”.

Turning to `C=C1CC(OC)(C(OC(C)=O)C(=O)NC2OCOC3C2OC(CC(COC(C)=O)OC(C)=O)C(C)(C)C3OC)OC(C)C1C` (stereo not shown) [Example 7, Mycalamide A Triacetate], in the data set with P388 mouse leukemia cell, the “P388 IC50” value worked out at 51.9 ng/mL. Besides, in the data set on BSC cells, the “AV assay, cytotoxicity” value was “-”.

Regarding `C=C1CC(OC)(C(O)C(=O)NC2OCOC3C2OC(CC(O)CO[Si](C)(C)C(C)(C)C)C(C)(C)C3OC)OC(C)C1C` (stereo not shown) [Example 16, Mycalamide A 18-mono-t-butyl,dimethylsilylether], in the data set on P388 mouse leukemia cell, the “P388 IC50” value stood at 28.5 ng/mL. For the same compound, the “AV assay, PVI” value in data set [1] was 4+ and -. Besides, the “AV assay, HSV” value with HSV was 4+ and -. In addition, the “AV assay, cytotoxicity” value in the data set with BSC cells is given as “-”.

Turning to `C=C1CC(OC)(C(O[Si](C)(C)C)C(=O)NC2OCOC3C2OC(CC(CO[Si](C)(C)C)OC)C(C)(C)C3OC)OC(C)C1C` (stereo not shown) [Example 18, Mycalamide B bis-trimethylsilylether], the “P388 IC50” value with P388 mouse leukemia cell turned out to be 0.19 ng/mL.

Turning to `C=C1CC(OC)(C(O)C(=O)NC2OCOC3C2OC(CC(CO[Si](C)(C)C)OC)C(C)(C)C3OC)OC(C)C1C` (stereo not shown) [Example 17, Mycalamide B 18-mono-trimethylsilylether], the “P388 IC50” value in the data set on P388 mouse leukemia cell was determined as 0.08 ng/mL. In addition, the “AV assay, PVI” value in data set [1] was 4+ and -. Further, the “AV assay, HSV” value with HSV is 4+ and -. For the same compound, in the data set on BSC cells, the “AV assay, cytotoxicity” value is “-”.

Consider `COC1C2OCOC(NC(=O)C(O)C3(OC)CC(C)C(C)C(C)O3)C2OC(CC(O)CO)C1(C)C` (stereo not drawn) [Example 19, 4α-Dihydro mycalamide A], for which, in the data set on P388 mouse leukemia cell, the “P388 IC50” value turned out to be 2.3 ng/mL. Also, the “AV assay, HSV” value in the data set with HSV was 4+ and -.

On to `COC1C2OCOC(NC(=O)C(O)C3(OC)CC(C)C(C)C(C)O3)C2OC(CC(O)CO)C1(C)C` (stereo not drawn) [Example 22, 4β-dihydro mycalamide A], for which, in the data set with P388 mouse leukemia cell, the “P388 IC50” value came out at 0.8 ng·mL. The “AV assay, cytotoxicity” value in the data set with BSC cells was “-”.

As for `C=C1CC(OC)(C(OC(=O)CC)C(=O)NC2OCOC3C2OC(CC(COC(=O)CC)OC(=O)CC)C(C)(C)C3OC)OC(C)C1C` (stereo not shown) [Example 8, Mycalamide A Tripropanoate], the “P388 IC50” value in the data set with P388 mouse leukemia cell stood at 85.6 ng/mL. In addition, in data set [1], the “AV assay, PVI” value was 4+ and -. Besides, the “AV assay, cytotoxicity” value in the data set on BSC cells is listed as “-”.

The record behind these values is US4868204A, “Mycalamide compounds, compositions thereof and methods of preparation and use” (Harbor Branch Oceanographic Institution, Inc., priority 1988, dated 1989).
